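Five concentrations, 48 hours, 96-well plates. GI50: concentration for 50% inhibition of growth. TGI is the concentration that stops growth completely.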
Legend:
Experiment in all cases: DTP human tumour cell line panel, 48 h
[1] = tested on: COLO 205 colon
[2] = tested on: SF-295 CNS
[3] = tested on: UACC-257 melanoma
[4] = tested on: HOP-92 NSCLC
[5] = tested on: HCC-2998 colon
[6] = tested on: OVCAR-5 ovarian
[7] = tested on: SF-539 CNS
[8] = tested on: NCI-H23 lung
[9] = tested on: EKVX NSCLC
[10] = tested on: CCRF-CEM leukemia

In the case of CC[O-].CC[O-].O=C1C(c2ccccc2)=C([O-])c2ccccc21.O=C1C(c2ccccc2)=C([O-])c2ccccc21.[Ti+4], the GI50 [1] is reported as > 100 µM, the TGI [1] is reported as > 100 µM and the GI50 [2] is reported as > 100 µM. The TGI [2] was > 100 µM, the GI50 [3] was > 100 µM and the TGI [3] was > 100 µM. The GI50 [4] was > 100 µM, the TGI [4] was > 100 µM and the GI50 [5] was > 100 µM. For the same molecule, the TGI [5] was > 100 µM, the GI50 [6] was > 100 µM and the TGI [6] was > 100 µM. The GI50 [7] was > 100 µM, the TGI [7] was > 100 µM and the GI50 [8] was > 100 µM. The TGI [8] was > 100 µM, the GI50 [9] was 60.1 µM and the TGI [9] was > 100 µM.

With O=c1ccnc2c1ccc1[nH]cccc12 the TGI [1] was > 100 µM, the TGI [3] was > 100 µM and the TGI [10] was > 100 µM. The TGI [5] was > 100 µM, the TGI [6] was > 100 µM and the TGI [7] was > 100 µM. The TGI [8] was > 100 µM and the TGI [9] was > 100 µM.

In the case of Cc1nc2cc(N)c(F)cc2[nH]1, the TGI [1] is reported as > 100 µM, the TGI [2] is reported as > 100 µM and the TGI [3] is reported as > 100 µM. For the same molecule, the TGI [4] was > 100 µM, the TGI [10] was > 100 µM and the TGI [6] was > 100 µM. The TGI [7] was > 100 µM, the TGI [8] was > 100 µM and the TGI [9] was > 100 µM.

Work on CCOc1ccc(Nc2nc(-c3ccc4c(c3)NC(=O)CO4)cs2)cc1 yielded a GI50 [1] of 11.1 µM, a TGI [1] of 33.6 µM and a GI50 [2] of 4.92 µM. The TGI [2] was > 100 µM, the GI50 [3] was 3.37 µM and the TGI [3] was 11 µM. The GI50 [4] was 12.4 µM, the TGI [4] was > 100 µM and the GI50 [10] was 6.28 µM. For the same molecule, the TGI [10] was > 100 µM, the GI50 [6] was > 100 µM and the TGI [6] was > 100 µM. For the same molecule, the GI50 [7] was 16.1 µM, the TGI [7] was > 100 µM and the GI50 [8] was 6.96 µM. For the same molecule, the TGI [8] was > 100 µM, the GI50 [9] was 6.59 µM and the TGI [9] was > 100 µM.

In the case of O=C([CH-]C(=O)c1ccccc1)c1ccccc1.O=C([CH-]C(=O)c1ccccc1)c1ccccc1.O=C([CH-]C(=O)c1ccccc1)c1ccccc1.[OH3+].[Y+3], the GI50 [1] is reported as 13.2 µM, the TGI [1] is reported as 30.9 µM and the GI50 [2] is reported as 3.99 µM. It also gave a TGI [2] of 19.1 µM, a GI50 [3] of 12 µM and a TGI [3] of 33.2 µM. The GI50 [4] was 10 µM, the TGI [4] was 25.3 µM and the GI50 [5] was 10.3 µM. The TGI [5] was 25.8 µM, the GI50 [6] was 16.9 µM and the TGI [6] was 66.1 µM. The GI50 [7] was 9.27 µM, the TGI [7] was 43.1 µM and the GI50 [8] was 3.51 µM. For the same molecule, the TGI [8] was 18.9 µM, the GI50 [9] was 3.32 µM and the TGI [9] was 23.1 µM.

For CN1CCCCCC(=N\O)/C(=N/O)CCCCC1, the TGI [2] was > 100 µM, the TGI [3] was > 100 µM and the TGI [4] was > 100 µM. For the same molecule, the TGI [10] was > 100 µM, the TGI [6] was > 100 µM and the TGI [7] was > 100 µM. The TGI [8] was > 100 µM and the TGI [9] was > 100 µM.

For COc1ccc(-c2ccc(/C=N/n3c(COc4ccc(Cl)cc4Cl)nn(CN4CCN(C)CC4)c3=S)o2)c([N+](=O)[O-])c1, the GI50 [1] was 29.3 µM, the TGI [1] was > 100 µM and the GI50 [2] was 16.8 µM. The TGI [2] was 37.5 µM, the GI50 [3] was 23.5 µM and the TGI [3] was 59.6 µM. The GI50 [10] was 14.3 µM, the TGI [10] was 47 µM and the GI50 [6] was 24.2 µM. The TGI [6] was 97.1 µM, the GI50 [8] was 13.3 µM and the TGI [8] was 30.6 µM.

In the case of O=C([O][Hg][CH2]C1COCC([CH2][Hg][O]C(=O)c2ccccc2)O1)c1ccccc1 (stereo unspecified), the GI50 [1] is reported as 1.88 µM, the TGI [1] is reported as 3.55 µM and the GI50 [2] is reported as 17.3 µM. For the same molecule, the TGI [2] was 35.7 µM, the GI50 [3] was 1.45 µM and the TGI [3] was 2.85 µM. It also gave a GI50 [4] of 2.25 µM, a TGI [4] of 4.23 µM and a GI50 [10] of 0.804 µM. For the same molecule, the TGI [10] was 5.08 µM, the GI50 [6] was 19.2 µM and the TGI [6] was 35.9 µM. It also gave a GI50 [7] of 23.7 µM, a TGI [7] of 51.8 µM and a GI50 [8] of 16.1 µM. It also gave a TGI [8] of 36.8 µM, a GI50 [9] of 19.6 µM and a TGI [9] of 37.4 µM.

COC(=O)C12CC3CC(C1)CC(C(=O)OC)(C3)C2 was tested, and the TGI [2] was > 100 µM, the TGI [3] was > 100 µM and the TGI [4] was > 100 µM. For the same molecule, the TGI [10] was > 100 µM, the TGI [5] was > 100 µM and the TGI [6] was > 100 µM. For the same molecule, the TGI [7] was > 100 µM, the TGI [8] was > 100 µM and the TGI [9] was > 100 µM.

With Nc1ncn(C2C=C(CO)C(O)C2O)c(=O)n1 (stereo unspecified) the TGI [1] was 74.2 µM, the TGI [3] was > 100 µM and the TGI [5] was > 100 µM. For the same molecule, the TGI [7] was > 100 µM and the TGI [9] was > 100 µM.

In the case of O=C(Nc1cc[c]([Sb](=[O])([OH])[OH])cc1)c1ccccc1, the GI50 [2] is reported as > 100 µM, the TGI [2] is reported as > 100 µM and the GI50 [4] is reported as > 100 µM. The TGI [4] was > 100 µM, the GI50 [10] was > 100 µM and the TGI [10] was > 100 µM. The GI50 [6] was > 100 µM, the TGI [6] was > 100 µM and the GI50 [8] was > 100 µM. For the same molecule, the TGI [8] was > 100 µM, the GI50 [9] was > 100 µM and the TGI [9] was > 100 µM.

In the case of COc1ccc(C2=C(c3ccc(OC)c(OC)c3)C(=O)OC2)cc1, the GI50 [1] is reported as < 0.0238 µM, the TGI [1] is reported as > 68.1 µM and the GI50 [2] is reported as < 0.0496 µM. The GI50 [3] was > 47.4 µM, the TGI [3] was > 100 µM and the GI50 [4] was 3.48 µM. It also gave a TGI [4] of 32.6 µM, a GI50 [10] of 0.206 µM and a TGI [10] of 0.826 µM. For the same molecule, the GI50 [6] was 0.545 µM, the TGI [6] was > 100 µM and the TGI [7] was > 24.2 µM. The GI50 [8] was 0.023 µM, the TGI [8] was > 100 µM and the GI50 [9] was 1.95 µM. For the same molecule, the TGI [9] was > 100 µM.

CC(=O)Nc1c(C)ccc2c1C(=O)c1ccccc1C2=O was tested, and the TGI [1] was > 100 µM, the TGI [2] was > 100 µM and the TGI [3] was > 100 µM. For the same molecule, the TGI [4] was > 100 µM, the TGI [10] was > 100 µM and the TGI [5] was > 100 µM. The TGI [6] was > 100 µM and the TGI [7] was > 100 µM.

CCCCCCCCCCC(O)C1CCC(C(O)CCC(O)C2CCC(CCCCCCC[C@H](O)CC3=C[C@@H](C)OC3=O)O2)O1 (stereo partly specified) was tested, and the TGI [1] was > 100 µM, the TGI [2] was > 100 µM and the GI50 [3] was 0.461 µM. For the same molecule, the TGI [3] was > 100 µM, the TGI [4] was > 100 µM and the TGI [5] was > 100 µM. For the same molecule, the TGI [6] was > 100 µM, the TGI [7] was > 100 µM and the TGI [8] was 69.4 µM. The GI50 [9] was 4.16 µM and the TGI [9] was > 100 µM.

With CN(C)CC/C(=N\Nc1ccccc1)c1ccccc1 the TGI [1] was 33.5 µM, the TGI [2] was 6.89 µM and the TGI [4] was 36.5 µM. The TGI [5] was 58.9 µM, the TGI [6] was 30.9 µM and the TGI [7] was 32.6 µM. The TGI [8] was > 100 µM and the TGI [9] was 41.2 µM.

Molecule COc1ccc2c(c1)OC1=C(C(=O)OC1)C2c1cc(OC)c(OC)c(OC)c1 (stereo unspecified) has a GI50 [1] of 0.312 µM, a TGI [1] of 0.974 µM and a GI50 [2] of 0.279 µM. For the same molecule, the TGI [2] was > 100 µM, the GI50 [4] was 3.99 µM and the TGI [4] was > 100 µM. For the same molecule, the GI50 [10] was 0.315 µM, the TGI [10] was > 100 µM and the GI50 [5] was 1.27 µM. For the same molecule, the TGI [5] was > 100 µM, the GI50 [6] was 4.3 µM and the TGI [6] was > 100 µM. For the same molecule, the GI50 [8] was 0.609 µM, the TGI [8] was > 100 µM and the TGI [9] was > 100 µM.

In the case of CCc1nc(N)nc(C(=O)NCCNC(=O)c2nc(N)nc(CC)c2C)c1C, the TGI [2] is reported as > 100 µM, the TGI [3] is reported as > 100 µM and the TGI [4] is reported as > 100 µM. For the same molecule, the TGI [5] was > 100 µM, the TGI [6] was > 100 µM and the TGI [7] was > 100 µM. For the same molecule, the TGI [8] was > 100 µM and the TGI [9] was > 100 µM.

Reference: PubChem BioAssay (NCI)
